From paper PMC8151276, “An Integrated Approach toward NanoBRET Tracers for Analysis of GPCR Ligand Engagement” (Molecules, 2021)

Target: T1, OPRD1 (Homo sapiens, UniProt P41143)
T1 construct: purchased Promega (in-house HiBiT-GPCR construct library, NanoBRET)
Assay: NanoBRET screen HiBiT-OPRD1 in HEK293
Type: binding
Experimental: Each tracer candidate was screened across the entire library of HiBiT-GPCR constructs using NanoBRET as the detection modality. As depicted in Figure 4A, the specificity of interactions was evaluated through decrease in BRET due to competitive displacement of a bound tracer by excess parental compound. Each tracer was analyzed for binding to each HiBiT-GPCR fusion in the absence and in the presence of competing parental compound. Briefly, HEK293 cells were transfected with HiBiT-GPCR constructs diluted into promoterless DNA to reduce expression and maximize translocation to the cell surface. Each tracer candidate was then screened at concentrations of 1 μM and 0.1 μM across cells expressing these fusions. Cells were treated for 1.5 h with tracer either alone or in the presence of 20 μM competing parental compound (i.e., control). BRET was measured upon addition of purified LgBiT and subsequent complementation with HiBiT genetically fused to a GPCR. The specificity of interactions was assessed through a decrease in BRET signal due to competitive displacement of the bound tracer. To further gauge the robustness of these interactions, the fold response over the control (i.e., BRETtracer/BRETcontrol) was calculated. We chose a 1.5-fold response, which translates to ≥7-fold signal over noise as the minimal threshold required to score an interaction as positive.
HiBiT-GPCR DNA constructs were diluted in 10 mM Tris pH 8 to a final concentration of 0.01 μg/μL, arrayed in 96-well plates and stored at −20 °C. For transfection, HEK293 cells were suspended in Opti-MEM (without phenol red) supplemented with 2% fetal bovine serum (Seradigm) and 100 units/mL penicillin–streptomycin (Gibco) at a final concentration of 220,000 cells/mL and dispensed into white 96-well plates at 90 μL/well. Subsequent transfections and screens were carried using an Agilent Bravo Automated Liquid Handling Platform. First, the 96-well HiBiT DNA arrays were diluted 25-fold in Opti-MEM (without serum or phenol red) to a final concentration of 0.0004 μg/μL and 20 μL of the diluted DNAs were transferred into new 96-well plates. Next, promoterless carrier DNA (1 μg/μL) was diluted 25-fold (0.04 μg/μL) and then dispensed into the diluted arrays at 20 μL/well. Following brief mixing, Viafect transfection reagent (Promega) diluted 16-fold into Opti-MEM was dispensed into the plates at 40 μL/well. After mixing by pipetting, plates were incubated for 10 min on the pipetting station deck. The DNA-transfection reagent complexes were then added to plates containing cells. To facilitate the screen, 10 μL of DNA-transfection reagent complexes were added in duplicates to the top 4 and bottom 4 rows, resulting in two identical 48-well arrays per plate. Plates with transfected cells were incubated for 18–20 h at 37 °C/5% CO2. A screen of each tracer across the entire library using two different concentrations requires duplicate plates of transfected cells. Depending on the number of tracers being screened, transfections can be scaled up using the same ratios. The next day, for each tracer, four 20× screening solutions in tracer dilution buffer (Promega) were prepared: two duplicates at final concentration of 20 μM and two duplicates at a final concentration of 2 μM. […] The four resulting solutions were diluted 4-fold in Opti-MEM without serum or phenol red to generate 5× solutions (5 µM and 0.5 µM tracer +/− 100 μM competing compound). To screen the library, a BioTek MultiFlo FX liquid dispenser was used to dispense 22.5 µL of tracer solution to the top 4 rows and 22.5 µL tracer + competing compound solution to the 4 bottom rows. Plates were briefly mixed on an orbital shaker and incubated for 1.5 h at room temperature. […] Plates were briefly mixed on an orbital shaker and incubated for 15 min to allow complementation.

T1 sequence (P41143 whole entry): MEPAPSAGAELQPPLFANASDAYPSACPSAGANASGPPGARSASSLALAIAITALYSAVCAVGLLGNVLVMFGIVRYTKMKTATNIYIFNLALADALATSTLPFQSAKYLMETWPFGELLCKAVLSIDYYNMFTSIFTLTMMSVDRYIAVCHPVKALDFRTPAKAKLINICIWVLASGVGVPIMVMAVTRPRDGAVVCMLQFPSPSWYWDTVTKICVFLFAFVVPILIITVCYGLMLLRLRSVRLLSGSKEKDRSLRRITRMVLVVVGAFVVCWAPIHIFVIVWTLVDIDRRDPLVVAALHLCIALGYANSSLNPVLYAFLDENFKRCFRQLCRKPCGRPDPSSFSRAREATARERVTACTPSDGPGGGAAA

## CCOC(=O)c1cc(C#N)c(N2CCC(C(=O)NS(=O)(=O)Cc3ccccc3/C=C/C(=O)NCCNC(=O)CCc3ccc4n3[B-](F)(F)[N+]3=C(c5ccc[nH]5)C=CC3=C4)CC2)nc1C [AZD1283-1-NB590]
OPRD1, 0.1μM
  NanoBRET Fold Response: 1.09
OPRD1, 1μM
  NanoBRET Fold Response: 1.08

## N#CN/C(=N\CCNC(=O)c1ccc(N)cc1)NCCCOc1cccc(CN2CCCCC2)c1 [Aminopotentidine (unmodified)]
OPRD1, other tracers/Aminopotentidine (unmodified), 0.1μM
  NanoBRET Fold Response: 1.25
OPRD1, other tracers/Aminopotentidine (unmodified), 1μM
  NanoBRET Fold Response: 1.01

## N#CN=C(NCCCOc1cccc(CN2CCCCC2)c1)NCCNC(=O)CCOCCOCCOCCOCCNC(=O)CCc1ccc2n1[B-](F)(F)[N+]1=C(c3ccc[nH]3)C=CC1=C2 [Aminopotentidine-2-NB590]
OPRD1, tracer 0.1μM
  NanoBRET Fold Response: 1.05
OPRD1, tracer 1μM
  NanoBRET Fold Response: 1.02

## CN(C)CCC=C1c2ccccc2CCc2ccc(C(=O)NCCNC(=O)CCOCCOCCOCCOCCNC(=O)CCc3ccc4n3[B-](F)(F)[N+]3=C(c5ccc[nH]5)C=CC3=C4)cc21 [Amitriptyline-a-2-NB590]
Tracer at 0.1μM
  NanoBRET Fold Response: 0.99
Tracer at 1μM
  NanoBRET Fold Response: 0.91

## CN(C)CCC=C1c2ccccc2CCc2ccc(C(=O)NCCNC(=O)CCOCCOCCOCCOCCNC(=O)CCc3ccc4n3[B-](F)(F)[N+]3=C(c5ccc[nH]5)C=CC3=C4)cc21 [Amitriptyline-b-2-NB590]
Tracer at 0.1μM, listed as amitriptyline-b-2-NB590
  NanoBRET Fold Response: 1.01
Tracer at 1μM, listed as amitriptyline-b-2-NB590
  NanoBRET Fold Response: 1.01

## CN(CCC=C1c2ccccc2CCc2ccccc21)C(=O)CCOCCOCCOCCOCCNC(=O)CCc1ccc2n1[B-](F)(F)[N+]1=C(c3ccc[nH]3)C=CC1=C2 [Amitriptyline-e-2-NB590]
Tracer at 1μM
  NanoBRET Fold Response: 1.01

## COc1ccc2c(n1)c(CCNC(C)=O)cn2CCNC(=O)CCc1ccc2n1[B-](F)(F)[N+]1=C(c3ccc[nH]3)C=CC1=C2 [Azamelatonin-1-NB590]
0.1μM tracer
  NanoBRET Fold Response: 1.00
1μM tracer
  NanoBRET Fold Response: 1.00

## COc1ccc2[nH]c(-c3ccc(CNC(=O)CCOCCOCCOCCOCCNC(=O)CCc4ccc5n4[B-](F)(F)[N+]4=C(c6ccc[nH]6)C=CC4=C5)cc3)c(CCNC(C)=O)c2n1 [AzomelatoninICO9-2-NB590]
0.1μM tracer
  NanoBRET Fold Response: 1.06
1μM tracer
  NanoBRET Fold Response: 1.03

## O=C(CCOCCOCCOCCOCCNC(=O)CCc1ccc2n1[B-](F)(F)[N+]1=C(c3ccc[nH]3)C=CC1=C2)NCCCN1CCN(C2=Nc3cc(Cl)ccc3Nc3ccccc32)CC1 [Clozapine-a-2-NB590]
OPRD1, 0.1μM tracer
  NanoBRET Fold Response: 1.04
OPRD1, 1μM tracer
  NanoBRET Fold Response: 0.95

## CN1CCN(C2=Nc3cc(Cl)ccc3Nc3ccc(CNC(=O)CCOCCOCCOCCOCCNC(=O)CCc4ccc5n4[B-](F)(F)[N+]4=C(c6ccc[nH]6)C=CC4=C5)cc32)CC1 [Clozapine-b-2-NB590]
OPRD1, 0.1μM tracer
  NanoBRET Fold Response: 1.02
OPRD1, 1μM tracer
  NanoBRET Fold Response: 0.99

## CN1CCN(C2=Nc3cc(Cl)ccc3N(CC(=O)NCCOCCOCCOCCOCCNC(=O)CCc3ccc4n3[B-](F)(F)[N+]3=C(c5ccc[nH]5)C=CC3=C4)c3ccccc32)CC1 [Clozapine-c-2-NB590]
OPRD1, 0.1μM tracer
  NanoBRET Fold Response: 0.99
OPRD1, 1μM tracer
  NanoBRET Fold Response: 0.92

## O=C(CCOCCOCCOCCOCCNC(=O)CCc1ccc2n1[B-](F)(F)[N+]1=C(c3ccc[nH]3)C=CC1=C2)NCCCN1CCN(C2=Nc3ccccc3Oc3ccc(Cl)cc32)CC1 [Loxapine-a-2-NB590]
OPRD1, tracer 0.1μM
  NanoBRET Fold Response: 1.01
OPRD1, tracer 1μM
  NanoBRET Fold Response: 1.04

## COc1ccccc1N1CCN(CCCCN2C(=O)c3ccc(CNC(=O)CCOCCOCCOCCOCCNC(=O)CCc4ccc5n4[B-](F)(F)[N+]4=C(c6ccc[nH]6)C=CC4=C5)cc3C2=O)CC1 [NAN-190-2-NB590]
OPRD1, tracer 0.1μM
  NanoBRET Fold Response: 0.98

## COc1ccccc1N1CCN(CCCCN2C(=O)c3ccc(CNC(=O)CCOCCNC(=O)c4ccc(CNC(=O)CCc5ccc6n5[B-](F)(F)[N+]5=C(c7ccc[nH]7)C=CC5=C6)cc4)cc3C2=O)CC1 [NAN-190-3-NB590]
OPRD1, tracer 0.1μM
  NanoBRET Fold Response: 0.79
OPRD1, tracer 1μM
  NanoBRET Fold Response: 1.17

## O=C(CCc1ccc2n1[B-](F)(F)[N+]1=C(c3ccc[nH]3)C=CC1=C2)NCc1ccc(C(=O)NCCOCCC(=O)N[C@@H]2CC[C@@]3(O)[C@H]4Cc5ccc(O)c6c5[C@@]3(CCN4CC3CC3)[C@H]2O6)cc1 [Naltrexone-3-NB590]
OPRD1, tracer 0.1μM
  NanoBRET Fold Response: 1.81
OPRD1, tracer 1μM
  NanoBRET Fold Response: 1.52

## Cc1cc2c(s1)Nc1ccccc1N=C2N1CCN(CCCNC(=O)CCOCCOCCOCCOCCNC(=O)CCc2ccc3n2[B-](F)(F)[N+]2=C(c4ccc[nH]4)C=CC2=C3)CC1 [Olanzapine-a-2-NB590]
OPRD1, tracer 0.1μM
  NanoBRET Fold Response: 0.95
OPRD1, tracer 1μM
  NanoBRET Fold Response: 1.09

## O=C(CCc1ccc2n1[B-](F)(F)[N+]1=C(c3ccc[nH]3)C=CC1=C2)NCc1ccc(C(=O)NCCOCCOCCNCC(O)COc2cccc3ccccc23)cc1 (stereo not drawn) [Propranolol-3-NB590]
OPRD1, 0.1μM
  NanoBRET Fold Response: 0.97
OPRD1, 1μM
  NanoBRET Fold Response: 1.01

## O=C(CCc1ccc2n1[B-](F)(F)[N+]1=C(c3ccc[nH]3)C=CC1=C2)NCCOCCOCCNC(=O)OCCOCCN1CCN(C2=Nc3ccccc3Sc3ccccc32)CC1 [Quetiapine-a-2-NB590]
OPRD1, tracer 0.1μM
  NanoBRET Fold Response: 1.11
OPRD1, tracer 1μM
  NanoBRET Fold Response: 0.89

## Cc1nc2n(c(=O)c1CCN1CCC(c3noc4cc(F)ccc34)CC1)CCCC2OC(=O)NCCOCCOCCOCCOCCNC(=O)CCc1ccc2n1[B-](F)(F)[N+]1=C(c3ccc[nH]3)C=CC1=C2 (stereo not drawn) [Risperidone-2-NB590]
OPRD1, tracer 0.1μM
  NanoBRET Fold Response: 0.99
OPRD1, tracer 1μM
  NanoBRET Fold Response: 0.99

## CC(C)N(CC[C@H](c1ccccc1)c1cc(CCNC(=O)CCOCCOCCOCCOCCNC(=O)CCc2ccc3n2[B-](F)(F)[N+]2=C(c4ccc[nH]4)C=CC2=C3)ccc1O)C(C)C [Tolterodine-2-NB590]
OPRD1, tracer 0.1μM
  NanoBRET Fold Response: 1.00
OPRD1, tracer 1μM
  NanoBRET Fold Response: 0.94

## CC(C)N(CC[C@H](c1ccccc1)c1cc(CCNC(=O)c2ccc(CNC(=O)CCc3ccc4n3[B-](F)(F)[N+]3=C(c5ccc[nH]5)C=CC3=C4)cc2)ccc1O)C(C)C [Tolterodine-BZ-NB590]
OPRD1, tracer 0.1μM
  NanoBRET Fold Response: 1.06
OPRD1, tracer 1μM
  NanoBRET Fold Response: 1.05

## CCCn1c(=O)c2[nH]c(-c3ccc(OCC(=O)NCCNC(=O)CCOCCNC(=O)c4ccc(CNC(=O)CCc5ccc6n5[B-](F)(F)[N+]5=C(c7ccc[nH]7)C=CC5=C6)cc4)cc3)nc2n(CCC)c1=O [XAC-3-NB590]
OPRD1, tracer 0.1μM
  NanoBRET Fold Response: 0.97
OPRD1, tracer 1μM
  NanoBRET Fold Response: 0.81
